From ChEMBL document CHEMBL5233266, “β-Carboline as a Privileged Scaffold for Multitarget Strategies in Alzheimer's Disease Therapy” (J Med Chem, 2021)
Values after ≈ are worked out from the molar mass of the structure shown. One block for each compound: values may come before it.

Key:
[1] = target: Acetylcholinesterase (Homo sapiens, UniProt P22303); experiment: Inhibition of AChE (unknown origin)
[2] = target: cGMP-specific 3',5'-cyclic phosphodiesterase (Homo sapiens, UniProt O76074); experiment: Inhibition of PDE5 (unknown origin)
[3] = Aqueous solubility of compound; format: physicochemical; conditions: water
[4] = target: 5-hydroxytryptamine receptor 2A (Rattus norvegicus) (UniProt P14842); experiment: Displacement of [3H]-ketanserin from rat 5-HT2A expressed in mouse NIH/3T3 cells assessed as inhibition constant by Cheng-Prusoff equation analysis; format: cell-based
[5] = target: GABA-A receptor; anion channel; experiment: Displacement of [3H]flunitrazepam from GABAA (unknown origin ) receptor by radioligand binding assay; format: protein-complex assay, Homo sapiens
[6] = target: 5-hydroxytryptamine receptor 2C (Rattus norvegicus, UniProt P08909); experiment: Displacement of [3H]-ketanserin from rat 5-HT2C expressed in mouse NIH/3T3 cells assessed as inhibition constant by Cheng-Prusoff equation analysis; format: cell-based
[7] = target: Beta-secretase 1 (Homo sapiens, UniProt P56817); experiment: Inhibition of BACE1 (unknown origin) expressed in HEK293 cells by FRET assay; format: cell-based
[8] = target: Amyloid-beta precursor protein (Homo sapiens) (UniProt P05067); experiment: Inhibition of amyloid beta (unknown origin) aggregation relative to control; conditions: concentration not given here
[9] = target: T1, Gamma-aminobutyric acid receptor subunit alpha-1 (Homo sapiens, UniProt P14867); experiment: Binding affinity to human recombinant GABAA alpha1 receptor assessed as inhibition constant incubated for 1 hrs by liquid scintillation counting analysis
T1 sequence (P14867 whole entry): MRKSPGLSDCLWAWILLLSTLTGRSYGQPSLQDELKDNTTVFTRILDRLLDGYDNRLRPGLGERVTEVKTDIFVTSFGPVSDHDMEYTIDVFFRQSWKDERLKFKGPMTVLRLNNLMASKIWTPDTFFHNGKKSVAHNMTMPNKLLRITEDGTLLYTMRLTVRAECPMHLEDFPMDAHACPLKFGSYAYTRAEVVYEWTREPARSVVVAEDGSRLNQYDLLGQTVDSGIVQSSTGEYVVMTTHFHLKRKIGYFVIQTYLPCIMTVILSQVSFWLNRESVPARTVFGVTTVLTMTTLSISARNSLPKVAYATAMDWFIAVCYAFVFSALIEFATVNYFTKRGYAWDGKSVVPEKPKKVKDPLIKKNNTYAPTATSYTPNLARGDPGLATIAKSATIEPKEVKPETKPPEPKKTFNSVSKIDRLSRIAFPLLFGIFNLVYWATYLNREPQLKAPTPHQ

[10] = target: T2, Gamma-aminobutyric acid receptor subunit alpha-2 (Homo sapiens, UniProt P47869); experiment: Binding affinity to human recombinant GABAA alpha2 receptor assessed as inhibition constant incubated for 1 hrs by liquid scintillation counting analysis
T2 sequence (P47869 whole entry): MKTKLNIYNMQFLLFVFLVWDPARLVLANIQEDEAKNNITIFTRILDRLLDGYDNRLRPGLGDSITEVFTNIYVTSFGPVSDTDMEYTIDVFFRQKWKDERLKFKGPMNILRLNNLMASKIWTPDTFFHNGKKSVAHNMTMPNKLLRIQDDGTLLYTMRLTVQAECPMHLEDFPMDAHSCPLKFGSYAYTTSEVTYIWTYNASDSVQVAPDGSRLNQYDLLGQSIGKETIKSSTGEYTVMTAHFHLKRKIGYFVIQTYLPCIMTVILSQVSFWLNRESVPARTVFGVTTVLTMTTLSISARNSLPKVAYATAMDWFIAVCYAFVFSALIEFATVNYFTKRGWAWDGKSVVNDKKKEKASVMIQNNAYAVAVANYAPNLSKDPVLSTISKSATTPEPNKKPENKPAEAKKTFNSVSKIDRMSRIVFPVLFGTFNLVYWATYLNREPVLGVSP

[11] = target: T3, Gamma-aminobutyric acid receptor subunit alpha-3 (Homo sapiens, UniProt P34903); experiment: Binding affinity to human recombinant GABAA alpha3 receptor assessed as inhibition constant incubated for 1 hrs by liquid scintillation counting analysis
T3 sequence (P34903 whole entry): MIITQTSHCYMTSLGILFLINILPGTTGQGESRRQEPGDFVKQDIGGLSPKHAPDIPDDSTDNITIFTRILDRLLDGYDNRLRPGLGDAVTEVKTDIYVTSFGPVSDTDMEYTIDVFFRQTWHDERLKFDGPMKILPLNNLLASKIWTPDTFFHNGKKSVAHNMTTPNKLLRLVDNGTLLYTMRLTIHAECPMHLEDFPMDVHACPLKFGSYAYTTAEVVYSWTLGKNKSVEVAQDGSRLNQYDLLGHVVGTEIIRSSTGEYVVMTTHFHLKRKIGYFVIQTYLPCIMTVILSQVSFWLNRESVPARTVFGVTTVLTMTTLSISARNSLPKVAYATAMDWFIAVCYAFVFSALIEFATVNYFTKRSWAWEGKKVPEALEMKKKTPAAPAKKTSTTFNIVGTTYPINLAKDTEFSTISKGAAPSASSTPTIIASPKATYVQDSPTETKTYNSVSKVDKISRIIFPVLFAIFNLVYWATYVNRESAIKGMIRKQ

[12] = target: T4, Gamma-aminobutyric acid receptor subunit alpha-5 (Homo sapiens, UniProt P31644); experiment: Binding affinity to human recombinant GABAA alpha5 receptor assessed as inhibition constant incubated for 1 hrs by liquid scintillation counting analysis
T4 sequence (P31644 whole entry): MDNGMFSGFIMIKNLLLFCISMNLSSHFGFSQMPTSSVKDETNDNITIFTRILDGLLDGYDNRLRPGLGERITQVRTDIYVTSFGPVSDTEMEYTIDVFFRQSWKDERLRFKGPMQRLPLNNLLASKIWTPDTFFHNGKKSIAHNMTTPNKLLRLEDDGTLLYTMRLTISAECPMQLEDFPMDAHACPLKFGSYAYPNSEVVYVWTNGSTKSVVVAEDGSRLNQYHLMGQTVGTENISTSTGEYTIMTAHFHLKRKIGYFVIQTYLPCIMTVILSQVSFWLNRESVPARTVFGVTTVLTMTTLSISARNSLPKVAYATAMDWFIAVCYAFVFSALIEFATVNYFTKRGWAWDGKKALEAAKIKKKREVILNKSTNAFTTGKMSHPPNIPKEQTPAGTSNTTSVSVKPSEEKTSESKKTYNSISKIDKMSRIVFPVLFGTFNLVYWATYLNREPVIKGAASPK

[13] = target: T5, Gamma-aminobutyric acid receptor subunit alpha-6 (Homo sapiens, UniProt Q16445); experiment: Binding affinity to human recombinant GABAA alpha6 receptor assessed as inhibition constant incubated for 1 hrs by liquid scintillation counting analysis
[14] = target: T1, Gamma-aminobutyric acid receptor subunit alpha-1; experiment: Inhibition of GABAA alpha1 receptor (unknown origin)
[15] = target: T2, Gamma-aminobutyric acid receptor subunit alpha-2; experiment: Inhibition of GABAA alpha2 receptor (unknown origin)
[16] = target: T3, Gamma-aminobutyric acid receptor subunit alpha-3; experiment: Inhibition of GABAA alpha3 receptor (unknown origin)
[17] = target: T4, Gamma-aminobutyric acid receptor subunit alpha-5; experiment: Inhibition of GABAA alpha5 receptor (unknown origin)
[18] = target: T5, Gamma-aminobutyric acid receptor subunit alpha-6; experiment: Binding affinity to GABAA alpha6 receptor (unknown origin) assessed as inhibition constant
[19] = target: 5-hydroxytryptamine receptor 1A (Homo sapiens, UniProt P08908); experiment: Displacement of […] from human 5-HT1A expressed in human HEK cells assessed as inhibition constant by FLIPR assay; format: cell-based
[20] = target: 5-hydroxytryptamine receptor 2A (Homo sapiens, UniProt P28223); experiment: Displacement of [3H]-LSD from human 5-HT2A expressed in human HEK cells assessed as inhibition constant by FLIPR assay; format: cell-based
[21] = target: T6, 5-hydroxytryptamine receptor 3A (Homo sapiens, UniProt P46098); experiment: Binding affinity to 5-HT3R (unknown origin) assessed as inhibition constant
T6 sequence (P46098 whole entry): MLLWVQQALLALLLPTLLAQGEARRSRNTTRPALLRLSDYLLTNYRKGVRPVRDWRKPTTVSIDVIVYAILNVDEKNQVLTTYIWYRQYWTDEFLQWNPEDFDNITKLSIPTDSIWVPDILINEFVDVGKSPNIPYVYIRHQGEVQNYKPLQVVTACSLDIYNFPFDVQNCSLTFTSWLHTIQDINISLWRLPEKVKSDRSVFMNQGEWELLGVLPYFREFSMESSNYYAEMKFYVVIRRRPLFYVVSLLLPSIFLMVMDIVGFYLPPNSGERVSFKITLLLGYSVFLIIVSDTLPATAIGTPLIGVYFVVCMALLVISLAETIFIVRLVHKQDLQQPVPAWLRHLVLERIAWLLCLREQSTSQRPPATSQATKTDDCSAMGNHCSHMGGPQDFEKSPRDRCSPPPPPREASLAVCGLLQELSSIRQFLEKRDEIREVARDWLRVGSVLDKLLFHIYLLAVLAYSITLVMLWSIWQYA

T5 sequence (Q16445 whole entry): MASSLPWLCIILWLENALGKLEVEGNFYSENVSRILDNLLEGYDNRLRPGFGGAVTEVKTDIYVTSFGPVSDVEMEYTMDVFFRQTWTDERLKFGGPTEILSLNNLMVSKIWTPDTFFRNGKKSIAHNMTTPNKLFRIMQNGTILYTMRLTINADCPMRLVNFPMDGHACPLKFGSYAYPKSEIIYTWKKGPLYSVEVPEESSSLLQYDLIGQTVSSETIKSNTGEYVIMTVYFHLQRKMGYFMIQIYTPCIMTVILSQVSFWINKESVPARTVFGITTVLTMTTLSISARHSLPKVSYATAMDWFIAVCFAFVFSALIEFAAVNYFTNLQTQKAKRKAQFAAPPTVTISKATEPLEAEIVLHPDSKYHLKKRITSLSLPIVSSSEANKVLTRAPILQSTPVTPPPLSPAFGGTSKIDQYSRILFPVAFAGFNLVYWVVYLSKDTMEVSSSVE
Acetylcholinesterase, sequence (P22303 whole entry): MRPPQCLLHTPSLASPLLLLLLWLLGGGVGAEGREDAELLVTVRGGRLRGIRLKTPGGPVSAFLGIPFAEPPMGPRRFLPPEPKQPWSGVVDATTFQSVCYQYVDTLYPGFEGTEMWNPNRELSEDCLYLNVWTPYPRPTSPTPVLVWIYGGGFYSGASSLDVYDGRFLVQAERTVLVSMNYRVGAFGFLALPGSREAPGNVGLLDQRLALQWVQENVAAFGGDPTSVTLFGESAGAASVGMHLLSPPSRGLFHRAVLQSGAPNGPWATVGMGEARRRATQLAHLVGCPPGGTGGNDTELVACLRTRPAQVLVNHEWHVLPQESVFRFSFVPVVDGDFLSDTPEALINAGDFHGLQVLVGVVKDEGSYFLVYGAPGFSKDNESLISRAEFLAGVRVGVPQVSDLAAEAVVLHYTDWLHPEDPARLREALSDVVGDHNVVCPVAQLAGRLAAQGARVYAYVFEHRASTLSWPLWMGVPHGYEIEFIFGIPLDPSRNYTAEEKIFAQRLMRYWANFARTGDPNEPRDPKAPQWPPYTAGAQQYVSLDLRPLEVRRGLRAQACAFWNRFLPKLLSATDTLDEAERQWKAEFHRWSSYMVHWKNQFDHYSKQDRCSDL
5-hydroxytryptamine receptor 2A, sequence (P28223 whole entry): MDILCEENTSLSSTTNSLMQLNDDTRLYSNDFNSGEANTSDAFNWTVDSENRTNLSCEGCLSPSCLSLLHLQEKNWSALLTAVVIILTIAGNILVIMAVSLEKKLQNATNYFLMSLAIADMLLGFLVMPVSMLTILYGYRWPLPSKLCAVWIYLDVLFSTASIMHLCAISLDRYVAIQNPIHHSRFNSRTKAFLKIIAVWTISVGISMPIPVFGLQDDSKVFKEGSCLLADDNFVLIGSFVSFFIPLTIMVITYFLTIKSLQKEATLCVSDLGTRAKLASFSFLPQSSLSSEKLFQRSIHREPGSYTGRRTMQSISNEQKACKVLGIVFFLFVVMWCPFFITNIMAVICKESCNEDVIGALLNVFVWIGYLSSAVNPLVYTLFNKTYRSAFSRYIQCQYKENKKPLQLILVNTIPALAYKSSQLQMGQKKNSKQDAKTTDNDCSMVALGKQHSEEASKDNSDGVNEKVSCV
5-hydroxytryptamine receptor 1A, sequence (P08908 whole entry): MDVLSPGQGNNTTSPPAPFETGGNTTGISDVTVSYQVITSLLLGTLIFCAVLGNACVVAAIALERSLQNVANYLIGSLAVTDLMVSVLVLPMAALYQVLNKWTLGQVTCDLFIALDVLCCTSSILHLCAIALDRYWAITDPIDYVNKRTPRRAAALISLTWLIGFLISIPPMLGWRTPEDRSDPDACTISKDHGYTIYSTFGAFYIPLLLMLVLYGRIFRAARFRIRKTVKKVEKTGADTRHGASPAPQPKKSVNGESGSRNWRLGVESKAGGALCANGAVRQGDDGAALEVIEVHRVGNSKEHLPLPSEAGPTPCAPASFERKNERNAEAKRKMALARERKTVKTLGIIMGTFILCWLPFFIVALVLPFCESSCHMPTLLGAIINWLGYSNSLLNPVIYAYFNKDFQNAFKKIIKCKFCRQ
Amyloid-beta precursor protein (Homo sapiens), sequence (P05067 whole entry): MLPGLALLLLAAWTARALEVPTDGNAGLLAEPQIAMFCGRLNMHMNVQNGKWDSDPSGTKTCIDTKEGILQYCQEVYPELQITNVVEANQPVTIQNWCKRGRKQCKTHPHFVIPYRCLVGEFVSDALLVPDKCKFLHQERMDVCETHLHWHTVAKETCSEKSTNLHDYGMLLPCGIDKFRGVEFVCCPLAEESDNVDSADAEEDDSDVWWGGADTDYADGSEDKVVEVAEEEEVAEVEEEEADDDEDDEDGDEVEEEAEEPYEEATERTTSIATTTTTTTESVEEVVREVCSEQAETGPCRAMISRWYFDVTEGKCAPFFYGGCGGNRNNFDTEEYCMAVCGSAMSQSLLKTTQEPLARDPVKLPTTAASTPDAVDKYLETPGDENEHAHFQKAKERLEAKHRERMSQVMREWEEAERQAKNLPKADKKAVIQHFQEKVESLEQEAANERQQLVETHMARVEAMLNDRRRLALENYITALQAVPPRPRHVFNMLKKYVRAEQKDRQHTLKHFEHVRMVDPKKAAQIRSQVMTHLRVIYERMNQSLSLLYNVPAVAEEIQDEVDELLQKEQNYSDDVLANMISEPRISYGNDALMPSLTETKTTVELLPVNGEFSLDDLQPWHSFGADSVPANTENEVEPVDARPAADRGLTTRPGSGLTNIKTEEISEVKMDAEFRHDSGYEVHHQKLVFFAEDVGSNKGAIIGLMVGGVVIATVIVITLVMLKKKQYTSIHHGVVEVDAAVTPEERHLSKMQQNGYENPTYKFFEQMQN
5-hydroxytryptamine receptor 2A (Rattus norvegicus), sequence (P14842 whole entry): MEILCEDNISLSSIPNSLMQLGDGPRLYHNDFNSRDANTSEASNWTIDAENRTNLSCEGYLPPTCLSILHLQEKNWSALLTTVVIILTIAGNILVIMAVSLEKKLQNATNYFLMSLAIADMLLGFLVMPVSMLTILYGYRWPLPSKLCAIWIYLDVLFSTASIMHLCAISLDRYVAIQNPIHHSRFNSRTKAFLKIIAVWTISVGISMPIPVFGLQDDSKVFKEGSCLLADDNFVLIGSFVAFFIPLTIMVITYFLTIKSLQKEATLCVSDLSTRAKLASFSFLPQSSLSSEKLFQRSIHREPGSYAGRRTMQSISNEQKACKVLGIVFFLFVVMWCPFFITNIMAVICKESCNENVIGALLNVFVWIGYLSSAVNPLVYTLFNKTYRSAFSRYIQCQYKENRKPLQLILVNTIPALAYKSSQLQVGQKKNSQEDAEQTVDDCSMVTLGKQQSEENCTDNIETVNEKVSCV
5-hydroxytryptamine receptor 2C, sequence (P08909 whole entry): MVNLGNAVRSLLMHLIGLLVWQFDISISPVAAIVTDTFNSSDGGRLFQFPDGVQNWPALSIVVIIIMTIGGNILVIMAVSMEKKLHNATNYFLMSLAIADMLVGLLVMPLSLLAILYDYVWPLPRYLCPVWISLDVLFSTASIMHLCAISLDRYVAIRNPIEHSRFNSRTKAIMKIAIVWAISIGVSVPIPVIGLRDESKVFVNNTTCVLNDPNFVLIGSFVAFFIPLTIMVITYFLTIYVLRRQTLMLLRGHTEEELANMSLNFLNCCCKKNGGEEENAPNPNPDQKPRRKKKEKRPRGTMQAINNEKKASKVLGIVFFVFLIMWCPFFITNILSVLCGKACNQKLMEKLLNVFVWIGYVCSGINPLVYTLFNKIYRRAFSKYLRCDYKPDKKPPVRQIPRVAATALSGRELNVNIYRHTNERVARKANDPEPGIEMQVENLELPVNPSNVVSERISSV
Beta-secretase 1, sequence (P56817 whole entry): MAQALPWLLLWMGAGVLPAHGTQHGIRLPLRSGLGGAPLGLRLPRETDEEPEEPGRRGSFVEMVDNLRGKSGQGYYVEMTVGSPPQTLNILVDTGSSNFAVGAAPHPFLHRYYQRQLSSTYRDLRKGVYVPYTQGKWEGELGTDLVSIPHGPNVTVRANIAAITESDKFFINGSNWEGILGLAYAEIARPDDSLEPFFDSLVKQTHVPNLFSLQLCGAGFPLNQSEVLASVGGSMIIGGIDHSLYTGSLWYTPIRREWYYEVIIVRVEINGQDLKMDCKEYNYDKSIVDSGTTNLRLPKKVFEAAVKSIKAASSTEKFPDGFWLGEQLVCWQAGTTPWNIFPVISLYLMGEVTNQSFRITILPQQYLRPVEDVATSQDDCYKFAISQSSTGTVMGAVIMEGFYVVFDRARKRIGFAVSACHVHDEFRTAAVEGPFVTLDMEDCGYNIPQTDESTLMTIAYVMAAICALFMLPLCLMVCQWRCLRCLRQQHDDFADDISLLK

Structure (SMILES): COc1ccc([C@@H]2c3[nH]c4ccccc4c3C[C@H]3C(=O)N(CCC4CCN(Cc5ccccc5)CC4)CC(=O)N23)cc1
IC50 [1]: 15 nM
IC50 [2]: 3200 nM
solubility [3]: 420 µg/mL (≈ 746 µM)

Structure (SMILES): COc1cccc2[nH]c3c(c12)CCNC3
K [4]: < 0.18 µM

Structure (SMILES): COc1ccc2c3c([nH]c2c1)C(C)NCC3 (centres undefined)
IC50 [5]: > 100000 nM
Ki [6]: > 10000 nM

Structure (SMILES): COc1ccc([C@@H]2c3[nH]c4ccccc4c3C[C@@H]3C(=O)N(CCC4CCN(Cc5ccccc5)CC4)CC(=O)N23)cc1
IC50 [1]: 31 nM
IC50 [2]: 200 nM
solubility [3]: 1400 µg/mL (≈ 2490 µM)

IC50 [7]: > 50000 nM
inhibition [8]: 30%
Structure (SMILES): O=C(/C=C/c1ccc(O)c(O)c1)NCc1cn(C[C@@H]2Cc3c([nH]c4ccccc34)CN2)nn1

Ki [9]: 3 nM
Ki [10]: 24 nM
Ki [11]: 31 nM
Ki [12]: 240 nM
Ki [13]: > 10000 nM
IC50 [14]: 3 nM
IC50 [15]: 24 nM
IC50 [16]: 31 nM
IC50 [17]: 240 nM
Ki [18]: > 10000 nM
Structure (SMILES): c1ccc2c(c1)[nH]c1cnc3c4ccncc4[nH]c3c12

Structure (SMILES): CC1=NCCc2c1[nH]c1ccccc21
Ki [19]: 1700 nM
Ki [20]: 990 nM
Ki [21]: > 10000 nM
